Results: patent US11377473B2, “Albumin-binding prodrugs of auristatin E derivatives” (priority 2017, dated 2022)
Where two headings read alike, the source gives them in different places.

Tests used:
[1] = tested on: panel of 6 selected human cancer cell lines (LXFL 1674L, SW-620, CAL-27, RKO, MDA-MB-468, SK-OV-3); assay: IC50 determination in a panel of tumor cell lines (CellTiter-Blue Cell Viability assay); type: cell-based
Experimental: Samples were provided to Charles River Discovery Research Services Germany GmbH as frozen stock solutions in pharmaceutical grade DMSO (Sigma-Aldrich, Taufkirchen, Germany). On each day of the experiment, a frozen aliquot of stock solution was thawed. Subsequent serial dilutions were realized with complete RPMI 1640 cell culture medium using an intermediate dilution plate. 10 μL taken from the intermediate dilution plate were then transferred to 140 μL/well of the cell culture plate. Cells were treated with the test compounds at 10 concentrations in triplicate in half-log steps from 0.003 nM to 100 nM for a period of 96 h.
The compounds were tested in a panel of 6 selected human cancer cell lines by using CellTiter-Blue® Cell Viability assay (Promega, Mannheim, Germany). IC values are reported as absolute IC50 values, obtained for a test compound as the geometric mean of IC50 values over all cell lines tested.
The cell lines used were LXFL 1674L (established from patient-derived xenograft at Charles River Discovery Research Services Germany GmbH), SW-620 (kindly provided by the NCI, Bethesda, Md., USA), CAL-27 (purchased from DSMZ, Deutsche Sammlung von Mikroorganismen und Zellkulturen, Braunschweig, Germany), RKO, MDA-MB-468, and SK-OV-3 (from ATCC, American Type Culture Collection, Rockville, Md., USA). Authenticity of all cell lines was proven at the DSMZ by STR (short tandem repeat) analysis, a PCR based DNA-fingerprinting methodology. Cell lines were routinely passaged once or twice weekly and maintained in culture for up to 20 passages. Cells were grown at 37° C. in a humidified atmosphere with 5% CO2 in RPMI 1640 medium (25 mM HEPES, with L-glutamine, Biochrom, Berlin, Germany) supplemented with 10% (v/v) fetal calf serum (Sigma-Aldrich, Taufkirchen, Germany) and 0.1 mg/mL gentamicin (Life Technologies, Karlsruhe, Germany). The CellTiter-Blue® Cell Viability Assay was used according to manufacturer's instructions. Briefly, cells were harvested from exponential phase cultures, counted and plated in 96-well flat-bottom microtiter plates at a cell density of 4,000-10,000 cells/well depending on the cell line's growth rate. After a 24 h recovery period to allow the cells to resume exponential growth, 10 μL of culture medium (six control wells/plate) or of culture medium with test compound were added. The compounds were applied at 10 concentrations in triplicate in half-log increments up to 100 nM and cells were treated continuously for 96 h. […] Following an incubation period of up to 4 h, fluorescence (FU) was measured by using the Enspire Multimode Plate Reader (excitation λ=531 nm, emission λ=615 nm). IC50 values were determined with GraphPad Prism bioanalytic software (San Diego, Calif., USA).

[2] = pH-dependent release of free drug from human serum albumin conjugates; type: physicochemical; conditions: upon changing the pH from 7.4 to 4.1, 37° C., up to 24 hours
Experimental: The albumin-binding auristatin-Sulf07 derivatives were prepared as 2 mM stock solutions in anhydrous DMSO.
Release at pH 7.4: 442.4 μL of 1000 μM of reduced human serum albumin (881 μM free cysteine-34) and 727.6 μL PBS Buffer (4 mM sodium phosphate pH 7.4 and 150 mM NaCl) were added to a sealed HPLC vial and incubated at 37° C. for 30 minutes. After 30 minutes incubation 130 μL of the appropriate DMSO drug stock solution was added to the pre-incubated vial to produce a 200 μM solution of auristatin drug and a 300 μM solution of albumin (free cysteine-34). The mixture was allowed to react for 10 minutes at 37° C. and then analyzed by HPLC (method 7, 20 μL injection). Injections were repeated after 1 hour and then every hour up to 24 hours.
Release at pH 4.1: 408.5 μL of 1000 μM of reduced human serum albumin (881 μM free cysteine-34) and 539.4 μL of water were added to a sealed HPLC vial and incubated at 37° C. for 30 minutes. In a separate vial 190 μL sodium acetate buffer 50 mM pH 3.0 and 24.7 μL 1 M HCl were incubated at 37° C. for 30 minutes. […] The resulting solution was analyzed directly by HPLC (method 7). […]
The percentage of released free drug was determined by HPLC with a calibration curve (200 μM, 100 μM, 50 μM, 25 μM and 12.5 μM) for the free drugs i.e. AE-Keto for AE-Keto-Sulf07 and AE-Ester for AE-Ester-Sulf07. […]

[3] = Reconstitution stability (maleimide hydrolysis, loss of API) in reconstitution buffer; type: physicochemical; conditions: after 4 hours incubation at room temperature in reconstitution buffer (50 mM sodium phosphate pH 7.65 containing 4% HPβCD and 5% sucrose)
Experimental: (§1) The albumin-binding AE-Keto drug derivatives were reconstituted in 50 mM sodium phosphate buffer pH 7.6 which contained 5% sucrose (w/v) and 2% 2-hydroxypropyl-β-cyclodextrin (2-HPβCD). Both drugs were reconstituted at a concentration of 1277 μM (equal to 4.5 mg/kg murine xenograft dose), the dissolution of both drugs was confirmed by HPLC (method 2, 254 nm). Stability of the reconstituted drugs was monitored by HPLC at room temperature every 15 minutes over a period of 240 minutes for maleimide hydrolysis and loss of API.
as §1, with “AE-Ester” for “AE-Keto drug”, “4% 2-HPβCD.” for “2% 2-hydroxypropyl-β-cyclodextrin (2-HPβCD).”, “655” for “1277”, “2.4” for “4.5”, “310” for “254”

[4] = Homo sapiens, 96 h, read-out: Geometric mean IC50, geometric mean over six cell lines, 96 h treatment

| Structure (SMILES) | IC50 [1, 4] [nM] | IC50 ([1]; read-out: Geometric mean IC50, geometric mean over six cell lines, 96 h treatment) [nM] | percent of free drug released from albumin conjugate [2] | maleimide hydrolyzed [3] [%] |
| --- | --- | --- | --- | --- |
| CC[C@H](C)[C@@H]([C@@H](CC(=O)N1CCC[C@H]1[C@H](OC)[C@@H](C)C(=O)N[C@H](C)[C@@H](OC(=O)c1ccc(C(C)=O)cc1)c1ccccc1)OC)N(C)C(=O)[C@@H](NC(=O)[C@H](C(C)C)N(C)C)C(C)C (stereo in doubt) [AE-Ester, (1S,2R)-2-((3R)-3-((S)-1-((3R,4S,5R)-4-((S)-2-((S)-2-(dimethylamino)-3-methylbutanamido)-N,3-dimethylbutanamido)-3-methoxy-5-methylheptanoyl)pyrrolidin-2-yl)-3-methoxy-2-methylpropanamido)-1-phenylpropyl 4-acetylbenzoate] | 0.339 | 0.399 ± 0.00019 | higher than the percent of AE-Keto released |  |
| CC[C@H](C)[C@@H]([C@@H](CC(=O)N1CCC[C@H]1[C@H](OC)[C@@H](C)C(=O)N[C@H](C)C(=O)c1ccccc1)OC)N(C)C(=O)[C@@H](NC(=O)[C@H](C(C)C)N(C)C)C(C)C [AE-Keto, (S)-1-(((S)-1-(((3R,4S,5S)-3-methoxy-1-((S)-2-((1R,2R)-1-methoxy-2-methyl-3-oxo-3-(((R)-1-oxo-1-phenylpropan-2-yl)amino)propyl)pyrrolidin-1-yl)-5-methyl-1-oxoheptan-4-yl)(methyl)amino)-3-methyl-1-oxobutan-2-yl)amino)-N,N,3-trimethyl-1-oxobutan-2-aminium 2,2,2-trifluoroacetate] | 0.259 |  |  |  |
| CC[C@H](C)[C@@H]([C@@H](CC(=O)N1CCC[C@H]1[C@H](OC)[C@@H](C)C(=O)N[C@H](C)[C@@H](OC(=O)c1ccc(C(C)=NNC(=O)CCCCCN2C(=O)C=CC2=O)cc1)c1ccccc1)OC)N(C)C(=O)[C@@H](NC(=O)[C@H](C(C)C)N(C)C)C(C)C [AE-Ester-EMCH, reference compound] |  |  |  | 11.0 |
| CC[C@H](C)[C@@H]([C@@H](CC(=O)N1CCC[C@H]1[C@H](OC)[C@@H](C)C(=O)N[C@H](C)C(=NNC(=O)CCCCCN1C(=O)C=CC1=O)c1ccccc1)OC)N(C)C(=O)[C@@H](NC(=O)[C@H](C(C)C)N(C)C)C(C)C [AE-Keto-EMCH, reference compound] |  |  |  | 5.4 |
